Laboratory results reported in ChEMBL document CHEMBL5380850, “Discovery of the First Raptor (Regulatory-Associated Protein of mTOR) Inhibitor as a New Type of Antiadipogenic Agent” (J Med Chem, 2023).
The source made the active and inactive calls. The rule behind the calls is not given here.

Columns and labels:
3T3-L1 [1] = test: Anti-adipogenic activity against mouse 3T3-L1 cells at adipogenesis stage assessed as decrease in triglyceride level at 1 uM and measured upto 3 days by Oil Red O staining based spectroscopic analysis; assay type: functional, cell-based; settings: time <= 3.0 day
3T3-L1 [2] = test: Anti-adipogenic activity against mouse 3T3-L1 cells assessed as downregulation of ACC mRNA expression level at 0.1 to 1 uM incubated for 6 days by RT-qPCR analysis; assay type: functional, cell-based; settings: dose 0.1-1 µM, time 6.0 day
3T3-L1 [3] = test: Anti-adipogenic activity against mouse 3T3-L1 cells assessed as downregulation of PPARgamma protein expression level at 0.1 to 1 uM incubated for 24 hrs by Western blot analysis; assay type: functional, cell-based; settings: dose 0.1-1 µM
3T3-L1 [4] = test: Anti-adipogenic activity against mouse 3T3-L1 cells assessed as downregulation of C/EBPalpha protein expression level at 0.1 to 1 uM incubated for 24 hrs by Western blot analysis; assay type: functional, cell-based; settings: dose 0.1-1 µM
3T3-L1 [5] = test: Anti-adipogenic activity against mouse 3T3-L1 cells assessed as downregulation of C/EBPdelta protein expression level at 0.1 to 1 uM incubated for 24 hrs by Western blot analysis; assay type: functional, cell-based; settings: dose 0.1-1 µM
3T3-L1 [6] = test: Anti-adipogenic activity against mouse 3T3-L1 cells assessed as downregulation of DGAT2 protein expression level at 0.1 to 1 uM incubated for 6 days by Western blot analysis; assay type: functional, cell-based; settings: dose 0.1-1 µM, time 6.0 day
Mus musculus [7] = test: Anti-obesity activity in high fat diet-induced obese C57BL/6J mouse assessed as reduction in visceral fat content by measuring epididymis white adipose tissue weight at 40 mg/kg, ip administered every two days for 46 days; assay type: functional, organism-based; settings: time 46.0 day
Mus musculus [8] = test: Anti-obesity activity in high fat diet-induced obese C57BL/6J mouse model assessed as reduction in plasma glucose level at 40 mg/kg, ip administered every two days for 14 days; assay type: functional, organism-based; settings: time 14.0 day
Mus musculus [9] = test: Anti-obesity activity in high fat diet-induced obese C57BL/6J mouse model assessed as reduction in hepatic steatosis by measuring lipid deposition at 40 mg/kg, ip administered every two days for 46 days; assay type: functional, organism-based; settings: time 46.0 day
Mus musculus [10] = test: Anti-obesity activity in high fat diet-induced obese C57BL/6J mouse model assessed as reduction in hepatic triglyceride level at 40 mg/kg, ip administered every two days for 46 days; assay type: functional, organism-based; settings: time 46.0 day
Mus musculus [11] = test: Anti-obesity activity in high fat diet-induced obese C57BL/6J mouse model assessed as reduction in plasma AST level at 40 mg/kg, ip administered every two days for 46 days; assay type: functional, organism-based; settings: time 46.0 day
Mus musculus [12] = test: Anti-obesity activity in high fat diet-induced obese C57BL/6J mouse model assessed as reduction in plasma ALT level at 40 mg/kg, ip administered every two days for 46 days; assay type: functional, organism-based; settings: time 46.0 day
Mus musculus [13] = test: Anti-obesity activity in high fat diet-induced obese C57BL/6J mouse model assessed as decrease in brown adipocyte size at 40 mg/kg, ip administered every two days for 46 days by Hand E staining based microscopic analysis; assay type: functional, organism-based; settings: time 46.0 day
Mus musculus [14] = test: Anti-obesity activity in high fat diet-induced obese C57BL/6J mouse model assessed as increase in COX4 expression level in brown adipocyte at 40 mg/kg, ip administered every two days for 46 days by immunohistochemical analysis; assay type: functional, organism-based; settings: time 46.0 day
[15] = target: Serine/threonine-protein kinase mTOR (Mus musculus) (UniProt Q9JLN9); test: Inhibition of mTOR signalling in mouse 3T3-L1 cells assessed as mTOR phosphorylation at S2481 residue at 0.1 to 10 uM incubated for 24 hrs by Western blot analysis; assay type: cell-based; settings: dose 0.1-10 µM
[16] = target: Serine/threonine-protein kinase mTOR (Mus musculus) (UniProt Q9JLN9); test: Inhibition of mTOR signalling in mouse 3T3-L1 cells assessed as […] of 4E-BP1 phosphorylation at 0.1 to 10 uM incubated for 24 hrs by Western blot analysis; assay type: cell-based; settings: dose 0.1-10 µM
[17] = target: Serine/threonine-protein kinase mTOR (Mus musculus) (UniProt Q9JLN9); test: Inhibition of mTOR signalling in mouse 3T3-L1 cells assessed as downregulation of S6K1 phosphorylation at 0.1 to 10 uM incubated for 24 hrs by Western blot analysis; assay type: cell-based; settings: dose 0.1-10 µM
[18] = target: Serine/threonine-protein kinase mTOR (Mus musculus) (UniProt Q9JLN9); test: Inhibition of mTOR signalling in mouse 3T3-L1 cells assessed as upregulation of ATG3 expression level at 0.1 to 10 uM incubated for 24 hrs by Western blot analysis; assay type: cell-based; settings: dose 0.1-10 µM
[19] = target: Regulatory-associated protein of mTOR (Homo sapiens, UniProt Q8N122); test: Binding affinity to recombinant human Raptor and measured for 200 sec by SPR analysis
3T3-L1 [20] = test: Anti-adipogenic activity in SiRNA mediated Raptor knockdown mouse 3T3-L1 cells assessed as decrease in triglyceride level at 10 uM by Oil Red O staining based microscopic analysis; assay type: functional, cell-based
3T3-L1 [21] = test: Anti-adipogenic activity in SiRNA mediated Raptor knockdown mouse 3T3-L1 cells assessed as PPARgamma expression level at 10 uM by Western blot analysis; assay type: functional, cell-based
3T3-L1 [22] = test: Anti-adipogenic activity in SiRNA mediated Raptor knockdown mouse 3T3-L1 cells assessed as FAS expression level at 10 uM by Western blot analysis; assay type: functional, cell-based
3T3-L1 [23] = test: Anti-adipogenic activity in SiRNA mediated Raptor knockdown mouse 3T3-L1 cells assessed as ACC expression level at 10 uM by Western blot analysis; assay type: functional, cell-based
mTORC1 (Mus musculus) [24] = target: mTORC1 (Mus musculus) (UniProt Q9JLN9); test: Inhibition of mTORC1 formation in mouse 3T3-L1 cells assessed as Raptor expression level at 10 uM incubated for 24 hrs by reciprocal co-immunoprecipitation assay; assay type: cell-based
mTORC1 (Mus musculus) [25] = target: mTORC1 (Mus musculus) (UniProt Q9JLN9); test: Inhibition of mTORC1 formation in mouse 3T3-L1 cells assessed as mTOR expression level at 10 uM incubated for 24 hrs by reciprocal co-immunoprecipitation assay; assay type: cell-based
mTORC1 (Mus musculus) [26] = target: mTORC1 (Mus musculus) (UniProt Q9JLN9); test: Inhibition of mTORC1 formation in mouse 3T3-L1 cells assessed as mLST8 expression level at 10 uM incubated for 24 hrs by reciprocal co-immunoprecipitation assay; assay type: cell-based
mTORC1 (Mus musculus) [27] = target: mTORC1 (Mus musculus) (UniProt Q9JLN9); test: Inhibition of mTORC1 formation in mouse 3T3-L1 cells assessed as decrease in Raptor/mLST8 interaction at 10 uM incubated for 24 hrs by reciprocal co-immunoprecipitation assay; assay type: cell-based
mTORC1 (Mus musculus) [28] = target: mTORC1 (Mus musculus) (UniProt Q9JLN9); test: Inhibition of mTORC1 formation in mouse 3T3-L1 cells assessed as decrease in S6K1 expression level at 10 uM incubated for 24 hrs by Western blot analysis; assay type: cell-based
mTORC1 (Mus musculus) [29] = target: mTORC1 (Mus musculus) (UniProt Q9JLN9); test: Inhibition of mTORC1 formation in mouse 3T3-L1 cells assessed as increase in phosphorylated-4E-BP1 expression level at 10 uM incubated for 24 hrs by Western blot analysis; assay type: cell-based
mTORC1 (Mus musculus) [30] = target: mTORC1 (Mus musculus) (UniProt Q9JLN9); test: Inhibition of mTORC1 formation in siRNA mediated Raptor knockdown mouse 3T3-L1 cells assessed as decrease in S6K1 expression level at 10 uM incubated for 24 hrs by Western blot analysis; assay type: cell-based
mTORC1 (Mus musculus) [31] = target: mTORC1 (Mus musculus) (UniProt Q9JLN9); test: Inhibition of mTORC1 formation in siRNA mediated Raptor knockdown mouse 3T3-L1 cells assessed as decrease in phosphorylated 4E-BP1 expression level at 10 uM incubated for 24 hrs by Western blot analysis; assay type: cell-based
3T3-L1 [32] = test: Anti-adipogenic activity in mouse 3T3-L1 cells assessed as increase in mCherry-LC3B-labeled autophagosomes at 10 uM by Immunofluorescence analysis; assay type: functional, cell-based
3T3-L1 [33] = test: Anti-adipogenic activity in siRNA-mediated LC3B knockdown mouse 3T3-L1 cells assessed as decrease in triglyceride level at 10 uM by Oil Red O staining based spectroscopic analysis; assay type: functional, cell-based
[34] = target: Regulatory-associated protein of mTOR (Mus musculus) (UniProt Q8K4Q0); test: Binding affinity to Raptor in mouse 3T3-L1 cells at 50 uM incubated overnight by pull-down assay
Chain of Regulatory-associated protein of mTOR (Mus musculus) (Q8K4Q0 whole entry, looked up): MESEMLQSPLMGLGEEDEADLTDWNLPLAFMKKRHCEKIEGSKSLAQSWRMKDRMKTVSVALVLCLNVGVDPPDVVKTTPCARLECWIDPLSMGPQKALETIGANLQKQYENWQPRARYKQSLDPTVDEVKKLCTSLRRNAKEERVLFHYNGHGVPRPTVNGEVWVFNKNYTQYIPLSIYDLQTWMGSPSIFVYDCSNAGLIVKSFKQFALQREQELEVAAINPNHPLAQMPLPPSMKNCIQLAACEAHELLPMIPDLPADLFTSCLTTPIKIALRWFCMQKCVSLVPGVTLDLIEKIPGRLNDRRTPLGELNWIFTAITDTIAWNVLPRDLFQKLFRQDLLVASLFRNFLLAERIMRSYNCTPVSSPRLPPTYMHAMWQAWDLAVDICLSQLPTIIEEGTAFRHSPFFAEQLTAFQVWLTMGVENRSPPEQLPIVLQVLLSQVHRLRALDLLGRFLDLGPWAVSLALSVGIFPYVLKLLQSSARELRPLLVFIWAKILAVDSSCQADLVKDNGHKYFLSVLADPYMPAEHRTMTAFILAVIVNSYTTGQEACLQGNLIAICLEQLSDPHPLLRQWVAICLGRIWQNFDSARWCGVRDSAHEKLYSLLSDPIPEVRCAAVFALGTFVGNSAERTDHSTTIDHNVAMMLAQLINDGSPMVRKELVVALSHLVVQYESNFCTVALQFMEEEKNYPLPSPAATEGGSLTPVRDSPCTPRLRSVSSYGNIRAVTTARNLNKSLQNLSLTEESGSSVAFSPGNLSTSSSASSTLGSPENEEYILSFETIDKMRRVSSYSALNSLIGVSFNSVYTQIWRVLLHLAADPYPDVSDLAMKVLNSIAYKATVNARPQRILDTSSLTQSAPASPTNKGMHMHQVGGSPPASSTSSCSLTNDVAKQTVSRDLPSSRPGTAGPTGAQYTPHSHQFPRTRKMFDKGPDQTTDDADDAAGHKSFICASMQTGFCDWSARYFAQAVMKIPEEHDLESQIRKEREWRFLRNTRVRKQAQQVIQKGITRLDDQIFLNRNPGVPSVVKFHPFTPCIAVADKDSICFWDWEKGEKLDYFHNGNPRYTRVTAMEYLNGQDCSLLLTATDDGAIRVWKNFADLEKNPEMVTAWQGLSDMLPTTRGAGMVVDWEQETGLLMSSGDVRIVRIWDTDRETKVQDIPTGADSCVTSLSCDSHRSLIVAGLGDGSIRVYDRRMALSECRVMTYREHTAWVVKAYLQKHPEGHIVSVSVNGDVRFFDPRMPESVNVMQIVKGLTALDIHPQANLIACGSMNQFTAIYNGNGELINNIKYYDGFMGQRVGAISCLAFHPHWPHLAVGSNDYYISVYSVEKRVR

Chain of Regulatory-associated protein of mTOR (Q8N122 whole entry): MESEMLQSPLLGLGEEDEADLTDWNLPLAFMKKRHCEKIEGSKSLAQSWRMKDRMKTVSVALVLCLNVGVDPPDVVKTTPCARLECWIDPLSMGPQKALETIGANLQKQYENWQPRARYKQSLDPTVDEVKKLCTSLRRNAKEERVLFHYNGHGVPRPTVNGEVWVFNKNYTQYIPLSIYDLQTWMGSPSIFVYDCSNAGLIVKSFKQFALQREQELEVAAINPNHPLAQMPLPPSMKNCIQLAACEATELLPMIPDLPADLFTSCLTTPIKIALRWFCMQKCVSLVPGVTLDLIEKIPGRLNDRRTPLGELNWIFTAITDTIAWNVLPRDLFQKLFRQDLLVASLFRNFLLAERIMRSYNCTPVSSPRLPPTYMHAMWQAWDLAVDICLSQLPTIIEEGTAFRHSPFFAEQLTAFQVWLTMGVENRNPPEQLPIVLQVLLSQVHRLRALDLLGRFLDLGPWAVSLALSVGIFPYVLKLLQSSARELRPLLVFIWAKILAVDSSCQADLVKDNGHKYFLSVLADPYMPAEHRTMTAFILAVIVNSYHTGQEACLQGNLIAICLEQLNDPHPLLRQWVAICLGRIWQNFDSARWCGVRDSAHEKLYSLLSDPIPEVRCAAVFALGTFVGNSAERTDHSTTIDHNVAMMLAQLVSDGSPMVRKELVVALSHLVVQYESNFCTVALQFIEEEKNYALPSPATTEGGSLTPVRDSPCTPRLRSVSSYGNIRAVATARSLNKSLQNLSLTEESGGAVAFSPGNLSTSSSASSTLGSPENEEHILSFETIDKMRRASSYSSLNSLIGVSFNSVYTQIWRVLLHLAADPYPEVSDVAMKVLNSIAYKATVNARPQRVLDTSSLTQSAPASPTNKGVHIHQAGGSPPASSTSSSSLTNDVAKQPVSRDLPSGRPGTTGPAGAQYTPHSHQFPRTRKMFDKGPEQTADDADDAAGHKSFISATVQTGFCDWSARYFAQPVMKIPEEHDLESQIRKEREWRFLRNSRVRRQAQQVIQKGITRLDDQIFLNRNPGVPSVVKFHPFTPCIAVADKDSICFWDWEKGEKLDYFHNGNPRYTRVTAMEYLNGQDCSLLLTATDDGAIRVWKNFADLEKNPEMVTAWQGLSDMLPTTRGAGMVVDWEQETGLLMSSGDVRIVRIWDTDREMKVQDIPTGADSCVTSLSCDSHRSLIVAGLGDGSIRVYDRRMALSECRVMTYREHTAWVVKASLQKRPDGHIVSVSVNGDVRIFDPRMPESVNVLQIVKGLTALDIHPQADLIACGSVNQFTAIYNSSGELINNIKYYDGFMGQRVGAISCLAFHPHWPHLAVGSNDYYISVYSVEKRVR

inhibition [15]: Active | inhibition [16]: Active | inhibition [17]: Active | inhibition [18]: Active | Kd [19]: 20.4 µM | inhibition (mTORC1 (Mus musculus) [24]): Active | inhibition (mTORC1 (Mus musculus) [25]): Active | inhibition (mTORC1 (Mus musculus) [26]): Active | inhibition (mTORC1 (Mus musculus) [27]): inactive | inhibition (mTORC1 (Mus musculus) [28]): Active | inhibition (mTORC1 (Mus musculus) [29]): Active | inhibition (mTORC1 (Mus musculus) [30]): Active | inhibition (mTORC1 (Mus musculus) [31]): Active | Activity [34]: Active
SMILES: C=C(C)[C@@]12OC3(c4ccccc4)O[C@@H]1[C@@H]1[C@H](O)[C@](Cl)(COC(=O)c4ccccc4)[C@@H](O)[C@]4(O)C(=O)C(C)=C[C@H]4[C@@]1(O3)[C@H](C)[C@H]2OC(C)=O
Activity (3T3-L1 [1]): inactive | Activity (3T3-L1 [2]): Active | Activity (3T3-L1 [3]): Active | Activity (3T3-L1 [4]): Active | Activity (3T3-L1 [5]): Active | Activity (3T3-L1 [6]): Active | Activity (Mus musculus [7]): Active | Activity (Mus musculus [8]): Active | Activity (Mus musculus [9]): Active | Activity (Mus musculus [10]): Active | Activity (Mus musculus [11]): Active | Activity (Mus musculus [12]): Active | Activity (Mus musculus [13]): Active | Activity (Mus musculus [14]): Active | Activity (3T3-L1 [20]): Active | Activity (3T3-L1 [21]): Active | Activity (3T3-L1 [22]): Active | Activity (3T3-L1 [23]): Active | Activity (3T3-L1 [32]): Active | Activity (3T3-L1 [33]): Active
